Experimental data published in ChEMBL document CHEMBL3588788, “Structure-activity relationship of hybrids of Cinchona alkaloids and bile acids with in vitro antiplasmodial and antitrypanosomal activities” (Eur J Med Chem, 2015).

Key:
[1] = Cytotoxicity against human WI38 cells by MTT assay; assay type: cell-based, WI-38; conditions: Homo sapiens, WI-38; read-out: IC50
[2] = test system: Trypanosoma brucei brucei; assay: Antitrypanosomal activity against Trypanosoma brucei brucei Lister 427 bloodstream forms by microtiter plate based assay; assay type: functional, organism-based
[3] = test system: Trypanosoma brucei brucei; assay: Potency index, ratio of IC50 for CND to IC50 for test compound against Trypanosoma brucei brucei Lister 427 bloodstream forms by microtiter plate based assay; assay type: functional
Plasmodium falciparum [4] = assay: Antiplasmodial activity against Plasmodium falciparum 3D7 assessed as reduction in parasite viability by parasite lactate dehydrogenase assay; assay type: functional, organism-based
[5] = Selectivity index, ratio of IC50 against human WI38 cells to IC50 for Plasmodium falciparum 3D7; assay type: toxicity, cell-based, WI-38; conditions: read-out: Ratio IC50
Plasmodium falciparum [6] = assay: Potency index, ratio of IC50 for CND to IC50 for test compound against Plasmodium falciparum 3D7 by parasite lactate dehydrogenase assay; assay type: functional
in vitro = conditions: human, WI38 cells
Description: Selectivity index, ratio of IC50 against human WI38 cells to IC50 for Trypanosoma brucei brucei Lister 427 bloodstream forms

Row | Compound | IC50 [1] [nM] | IC50 [2] [nM] | Ratio IC50 [3] | IC50 (Plasmodium falciparum [4]) [nM] | selectivity ratio [5] | Ratio IC50 (Plasmodium falciparum [6]) | selectivity ratio (in vitro)
1 | C=C[C@H]1CN2CC[C@H]1C[C@H]2[C@H](O)c1cc(CC[C@@H](C)[C@H]2CC[C@H]3[C@@H]4CC[C@@H]5C[C@H](O)CC[C@]5(C)[C@H]4C[C@H](O)[C@]23C)nc2ccccc12 | 5640 | 660 | 94.8 | 320 | 18 | 3 | 8.6
2 | C=C[C@H]1CN2CC[C@H]1C[C@H]2[C@H](O)c1cc(CC[C@@H](C)[C@H]2CC[C@H]3[C@@H]4[C@H](O)[C@H](O)[C@@H]5C[C@H](O)CC[C@]5(C)[C@H]4CC[C@]23C)nc2ccccc12 | 5320 | 620 | 100.5 | 392 | 14 | 2.5 | 8.6
